Measured values as given in US20080008754A1, “Pharmaceutical Compositions Comprising (+)-(2S,3S)-2-(3-Chlorophenyl)-3,5,5-Trimethyl-2-Morpholinol” (SMITHKLINE BEECHAM CORPORATION, priority 2004, published 2008).

Test: Solubility in an acidic environment
Type: physicochemical
Settings: aqueous buffer

- solubility: ~150 mg/mL
Compound: C[C@@H]1NC(C)(C)CO[C@@]1(O)c1cccc(Cl)c1 [compound of formula (I), (+)-(2S,3S)-2-(3-chlorophenyl)-3,5,5-trimethyl-2-morpholinol]
